Laboratory results as given in PubChem BioAssay (NCI).
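Assay format: 96-well plates, 48-hour exposure. GI50 = concentration required for 50% inhibition of growth. TGI marks complete inhibition of growth.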

How the values were obtained:
Experiment in all cases: NCI anticancer screen, dose series, 48 h
HCC-2998 colon = system: HCC-2998 colon
IGROV1 ovarian = system: IGROV1 ovarian
OVCAR-4 ovarian = system: OVCAR-4 ovarian
NCI-H522 lung = system: NCI-H522 lung
UACC-257 melanoma = system: UACC-257 melanoma
MALME-3M melanoma = system: MALME-3M melanoma
OVCAR-8 ovarian = system: OVCAR-8 ovarian
SF-295 CNS = system: SF-295 CNS
NCI/ADR-RES ovarian = system: NCI/ADR-RES ovarian
NCI-H23 lung = system: NCI-H23 lung

Structure (SMILES)	TGI (HCC-2998 colon)	TGI (IGROV1 ovarian)	TGI (OVCAR-4 ovarian)	TGI (NCI-H522 lung)	TGI (UACC-257 melanoma)	TGI (MALME-3M melanoma)	TGI (OVCAR-8 ovarian)	TGI (SF-295 CNS)	TGI (NCI/ADR-RES ovarian)	TGI (NCI-H23 lung)	GI50 (HCC-2998 colon)	GI50 (IGROV1 ovarian)	GI50 (OVCAR-4 ovarian)	GI50 (NCI/ADR-RES ovarian)	GI50 (NCI-H522 lung)	GI50 (UACC-257 melanoma)	GI50 (MALME-3M melanoma)	GI50 (NCI-H23 lung)	GI50 (OVCAR-8 ovarian)	GI50 (SF-295 CNS)
CC(C)CCC[C@@H](C)C1CCC2[C@@H]3CC=C4C[C@@H](C(=O)NCC[N+](C)(C)CCCS(=O)(=O)[O-])CC[C@]4(C)C3CC[C@@]21C (stereo not given in full)	35.2 µM	32.6 µM	35.9 µM	23.6 µM	34.8 µM	33.3 µM	35 µM	35 µM	–	–	–	–	–	–	–	–	–	–	–	–
O=C(O)CNc1ccc(C(=O)O)cc1	–	> 100 µM	> 100 µM	> 100 µM	> 100 µM	> 100 µM	> 100 µM	> 100 µM	> 100 µM	> 100 µM	–	–	–	–	–	–	–	–	–	–
S=P1(N2CCCCC2)Oc2ccc3ccccc3c2-c2c(ccc3ccccc23)O1	> 100 µM	> 100 µM	97.6 µM	> 100 µM	> 100 µM	> 59.6 µM	> 100 µM	> 100 µM	> 100 µM	> 100 µM	–	–	–	–	–	–	–	–	–	–
O=[N+]([O-])c1ccccc1NC1c2ccccc2Oc2ccccc21	> 100 µM	> 100 µM	> 100 µM	> 100 µM	> 100 µM	> 100 µM	> 100 µM	> 100 µM	> 100 µM	> 100 µM	75.2 µM	16.9 µM	8.21 µM	4.03 µM	3.84 µM	7.2 µM	7.13 µM	9.67 µM	6.73 µM	4.45 µM
Cc1ccc([N+](=O)[O-])cc1S(=O)(=O)Nc1ccc(C2=NNC(c3ccccc3O)C2)cc1 (stereo not given)	> 100 µM	> 100 µM	63.8 µM	> 100 µM	> 100 µM	96.3 µM	> 100 µM	90.9 µM	81 µM	67.7 µM	–	–	–	–	–	–	–	–	–	–
CN1CCCCC(C#N)(c2ccccc2)CC1 (stereo not given)	> 100 µM	> 100 µM	> 100 µM	–	> 100 µM	> 100 µM	> 100 µM	> 100 µM	> 100 µM	> 100 µM	–	–	–	–	–	–	–	–	–	–
N=C(N)c1ccc(-c2ccc(-c3ccccc3)s2)cc1	–	–	3.21 µM	–	–	2.83 µM	–	–	–	4.53 µM	–	–	1.59 µM	–	–	–	1.45 µM	2 µM	–	–
CC(=O)Oc1ccc2c(c1)oc1c3ccc(OC(C)=O)cc3n(C)c(=O)c21	57.1 µM	> 100 µM	–	–	> 100 µM	31.1 µM	79.3 µM	> 100 µM	51.7 µM	> 100 µM	–	–	–	–	–	–	–	–	–	–
C=C1C(=O)C[C@@]23CCC[C@@]12CC(OCOC)C3 (stereo not given in full)	12.3 µM	6.02 µM	5.66 µM	0.675 µM	7.82 µM	8.38 µM	9.96 µM	17.3 µM	9.5 µM	11.1 µM	–	–	–	–	–	–	–	–	–	–
N=c1c2c(=S)n(-c3ccccc3)c(=S)n(-c3ccccc3)c2nc(SCCCN2CCN(c3cccc(Cl)c3)CC2)n1-c1ccccc1	> 100 µM	> 100 µM	> 100 µM	> 100 µM	> 100 µM	> 100 µM	> 100 µM	> 100 µM	> 100 µM	> 100 µM	–	–	–	–	–	–	–	–	–	–
Cc1cc(C)c2c(c1)CC1(Cc3c(C)ccc(C)c3C1=O)C2=O (stereo not given)	> 100 µM	> 100 µM	> 100 µM	> 100 µM	> 100 µM	> 100 µM	> 100 µM	> 100 µM	> 100 µM	–	–	–	–	–	–	–	–	–	–	–
CCCCCCCC/C=C\CCCCCCCC(=O)O	> 500 µM	> 281 µM	> 352 µM	210 µM	201 µM	> 500 µM	194 µM	176 µM	196 µM	146 µM	–	–	–	–	–	–	–	–	–	–
COC(=O)c1cccc(N[C@@H]2c3cc4c(cc3C(c3cc(OC)c(O)c(OC)c3)[C@H]3C(=O)OCC32)OCO4)c1 (stereo not given in full)	8.09 µM	> 50.7 µM	> 100 µM	8.75 µM	7.82 µM	27.8 µM	> 37 µM	5.96 µM	> 85.1 µM	4.01 µM	–	–	–	–	–	–	–	–	–	–
CCN(CC)CCCNc1ncc(C)c2[nH]c3ccncc3c12	23.6 µM	27.3 µM	13.8 µM	22.8 µM	18.5 µM	27.4 µM	96.8 µM	29.7 µM	> 100 µM	34.6 µM	–	–	–	–	–	–	–	–	–	–
COc1cc(/C=C/c2cc(/C=C/c3ccc(O)c(OC)c3)nc(N)n2)ccc1O	3.19 µM	7.08 µM	11.5 µM	2.79 µM	3.5 µM	6.76 µM	7.24 µM	4.54 µM	18.8 µM	–	1.75 µM	2.95 µM	1.71 µM	2.88 µM	1.24 µM	1.53 µM	2.71 µM	–	2.19 µM	1.93 µM
O=C(O)CS	> 100 µM	> 100 µM	> 100 µM	> 100 µM	> 100 µM	> 100 µM	–	> 100 µM	–	> 100 µM	–	–	–	–	–	–	–	–	–	–
